In PubChem BioAssay (NCI):
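A five-concentration, 48-hour dose response in 96-well plates underlies each endpoint, interpolated linearly between surrounding concentrations. The concentration for full growth arrest is given as TGI.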

Columns and labels:
Assay in all cases: NCI tumour cell line growth inhibition, 48 h
786-0 renal = tested on: 786-0 renal
BT-549 breast = tested on: BT-549 breast
CCRF-CEM leukemia = tested on: CCRF-CEM leukemia
K-562 leukemia = tested on: K-562 leukemia
MDA-N = tested on: MDA-N
OVCAR-4 ovarian = tested on: OVCAR-4 ovarian
OVCAR-8 ovarian = tested on: OVCAR-8 ovarian
SK-MEL-2 melanoma = tested on: SK-MEL-2 melanoma
SK-MEL-5 melanoma = tested on: SK-MEL-5 melanoma
DLD-1 colon = tested on: DLD-1 colon
DMS 114 small cell lung = tested on: DMS 114 small cell lung
LXFL 529 NSCLC = tested on: LXFL 529 NSCLC
SNB-78 CNS = tested on: SNB-78 CNS

## N[C@@H](Cc1ccccc1)C(=O)N1CCC[C@@H]1P(=O)(Oc1ccccc1)Oc1ccccc1
786-0 renal
  TGI: > 100 µM
BT-549 breast
  TGI: > 100 µM
CCRF-CEM leukemia
  TGI: > 100 µM
K-562 leukemia
  TGI: > 100 µM
MDA-N
  TGI: > 100 µM
OVCAR-4 ovarian
  TGI: > 100 µM
OVCAR-8 ovarian
  TGI: > 100 µM
SK-MEL-2 melanoma
  TGI: > 100 µM
SK-MEL-5 melanoma
  TGI: > 100 µM

## NCCCN1c2ccccc2Sc2ccc(Cl)cc21
786-0 renal
  TGI: > 10 µM
BT-549 breast
  TGI: > 10 µM
CCRF-CEM leukemia
  TGI: > 10 µM
K-562 leukemia
  TGI: > 8.41 µM
MDA-N
  TGI: > 5.98 µM
OVCAR-4 ovarian
  TGI: > 10 µM
OVCAR-8 ovarian
  TGI: > 10 µM
SK-MEL-2 melanoma
  TGI: > 10 µM
SK-MEL-5 melanoma
  TGI: > 5.52 µM

## CC1=CCC([C@@](C)(O)CCCC(C)(C)N=C=S)CC1 (some centres not stated)
786-0 renal
  TGI: 31.6 µM
BT-549 breast
  TGI: 33.5 µM
CCRF-CEM leukemia
  TGI: 48.9 µM
K-562 leukemia
  TGI: 42.4 µM
MDA-N
  TGI: 32.4 µM
OVCAR-4 ovarian
  TGI: 30.9 µM
OVCAR-8 ovarian
  TGI: 32.7 µM
SK-MEL-2 melanoma
  TGI: 33.3 µM
SK-MEL-5 melanoma
  TGI: 29.2 µM

## CSc1cc(-c2cccs2)sc1-c1cc(SC)c(-c2sc(-c3sc(-c4cccs4)cc3SC)cc2SC)s1
786-0 renal
  TGI: > 100 µM
BT-549 breast
  TGI: > 100 µM
CCRF-CEM leukemia
  TGI: > 100 µM
K-562 leukemia
  TGI: > 100 µM
MDA-N
  TGI: > 100 µM
OVCAR-4 ovarian
  TGI: > 100 µM
OVCAR-8 ovarian
  TGI: > 100 µM
SK-MEL-2 melanoma
  TGI: > 100 µM
SK-MEL-5 melanoma
  TGI: > 100 µM

## Oc1cc(Cl)cc2cccnc12
786-0 renal
  TGI: > 54.9 µM
BT-549 breast
  TGI: > 91.1 µM
CCRF-CEM leukemia
  TGI: 1.95 µM
K-562 leukemia
  TGI: 2.66 µM
MDA-N
  TGI: > 100 µM
OVCAR-4 ovarian
  TGI: > 100 µM
OVCAR-8 ovarian
  TGI: > 100 µM
SK-MEL-2 melanoma
  TGI: > 100 µM
SK-MEL-5 melanoma
  TGI: 13.4 µM

## CC1(C)OC[C@@H](O)[C@H](C#N)CO1
786-0 renal
  TGI: > 100 µM
BT-549 breast
  TGI: > 100 µM
CCRF-CEM leukemia
  TGI: > 100 µM
K-562 leukemia
  TGI: > 100 µM
MDA-N
  TGI: > 100 µM
OVCAR-4 ovarian
  TGI: > 100 µM
OVCAR-8 ovarian
  TGI: > 100 µM
SK-MEL-2 melanoma
  TGI: > 100 µM
SK-MEL-5 melanoma
  TGI: > 100 µM

## O=C(O)CN1CCNCCN(CC(=O)O)CCN(CC(=O)O)CCNCC1
786-0 renal
  TGI: > 100 µM
BT-549 breast
  TGI: > 100 µM
CCRF-CEM leukemia
  TGI: > 100 µM
K-562 leukemia
  TGI: > 100 µM
MDA-N
  TGI: > 100 µM
OVCAR-4 ovarian
  TGI: > 100 µM
OVCAR-8 ovarian
  TGI: > 100 µM
SK-MEL-2 melanoma
  TGI: > 100 µM
SK-MEL-5 melanoma
  TGI: > 100 µM

## Cc1nn(-c2ccccc2)c2c1C(c1cc3ccccc3nc1Cl)NC(=O)N2 (configuration not stated)
786-0 renal
  TGI: 35.2 µM
BT-549 breast
  TGI: 36.8 µM
CCRF-CEM leukemia
  TGI: 71.6 µM
K-562 leukemia
  TGI: > 100 µM
MDA-N
  TGI: 37.2 µM
OVCAR-4 ovarian
  TGI: > 100 µM
OVCAR-8 ovarian
  TGI: 47.4 µM
SK-MEL-2 melanoma
  TGI: 29.5 µM
SK-MEL-5 melanoma
  TGI: 31.3 µM

## CCCCCCCCCCCCCCCCNc1cccc2ccccc12
786-0 renal
  TGI: > 100 µM
CCRF-CEM leukemia
  TGI: > 100 µM
DLD-1 colon
  TGI: > 100 µM
DMS 114 small cell lung
  TGI: > 100 µM
K-562 leukemia
  TGI: > 100 µM
LXFL 529 NSCLC
  TGI: > 100 µM
OVCAR-8 ovarian
  TGI: > 100 µM
SNB-78 CNS
  TGI: > 100 µM

## COc1ccc(C2c3cn[nH]c3CC3CCCCC32)cc1 (configuration not stated)
786-0 renal
  TGI: 33.2 µM
BT-549 breast
  TGI: 33.5 µM
CCRF-CEM leukemia
  TGI: 53.9 µM
K-562 leukemia
  TGI: 98.6 µM
MDA-N
  TGI: 27.9 µM
OVCAR-4 ovarian
  TGI: 43.5 µM
OVCAR-8 ovarian
  TGI: 35.6 µM
SK-MEL-2 melanoma
  TGI: 32.5 µM
SK-MEL-5 melanoma
  TGI: 29.1 µM

## O=c1[nH][nH]c(=O)n1CCCCCCn1c(=O)[nH][nH]c1=O
786-0 renal
  TGI: > 100 µM
BT-549 breast
  TGI: > 100 µM
CCRF-CEM leukemia
  TGI: > 100 µM
K-562 leukemia
  TGI: > 100 µM
MDA-N
  TGI: > 100 µM
OVCAR-4 ovarian
  TGI: > 100 µM
OVCAR-8 ovarian
  TGI: > 100 µM
SK-MEL-2 melanoma
  TGI: > 100 µM
SK-MEL-5 melanoma
  TGI: > 100 µM

## O=C(CCn1ccnc1[N+](=O)[O-])NCCCn1ccnc1[N+](=O)[O-]
786-0 renal
  TGI: > 100 µM
BT-549 breast
  TGI: > 100 µM
CCRF-CEM leukemia
  TGI: > 100 µM
K-562 leukemia
  TGI: > 100 µM
MDA-N
  TGI: > 100 µM
OVCAR-4 ovarian
  TGI: > 100 µM
OVCAR-8 ovarian
  TGI: > 100 µM
SK-MEL-2 melanoma
  TGI: > 100 µM
SK-MEL-5 melanoma
  TGI: > 100 µM

## CC(C)c1cc2c(c(O)c1O)[C@@]1(C(=O)O)CCCC(C)(C)[C@@H]1CC2
786-0 renal
  TGI: > 100 µM
BT-549 breast
  TGI: 28.7 µM
CCRF-CEM leukemia
  TGI: 42.3 µM
K-562 leukemia
  TGI: > 100 µM
MDA-N
  TGI: > 100 µM
OVCAR-4 ovarian
  TGI: > 100 µM
OVCAR-8 ovarian
  TGI: 30.1 µM
SK-MEL-2 melanoma
  TGI: 41.6 µM
SK-MEL-5 melanoma
  TGI: 47.2 µM

## Cc1c(O)nc(-n2[nH]c3c(c2=O)CCCC3)[nH]c1=O
786-0 renal
  TGI: > 100 µM
BT-549 breast
  TGI: > 100 µM
CCRF-CEM leukemia
  TGI: > 100 µM
K-562 leukemia
  TGI: > 100 µM
MDA-N
  TGI: > 100 µM
OVCAR-4 ovarian
  TGI: > 100 µM
OVCAR-8 ovarian
  TGI: > 100 µM
SK-MEL-2 melanoma
  TGI: > 100 µM
SK-MEL-5 melanoma
  TGI: > 100 µM

## S=c1c2cn[nH]c2nc2scc(-c3ccc(Cl)cc3)n12
786-0 renal
  TGI: 29.4 µM
BT-549 breast
  TGI: 27.5 µM
CCRF-CEM leukemia
  TGI: 50.9 µM
K-562 leukemia
  TGI: > 100 µM
MDA-N
  TGI: 26.2 µM
OVCAR-4 ovarian
  TGI: > 100 µM
OVCAR-8 ovarian
  TGI: 41.7 µM
SK-MEL-2 melanoma
  TGI: 46.6 µM
SK-MEL-5 melanoma
  TGI: > 100 µM

## C=CCc1cc(-c2nc(=S)[nH][nH]2)ccc1N=NNc1ccc(C(=O)O)cc1
786-0 renal
  TGI: > 100 µM
BT-549 breast
  TGI: 73.8 µM
CCRF-CEM leukemia
  TGI: > 100 µM
K-562 leukemia
  TGI: > 100 µM
MDA-N
  TGI: > 100 µM
OVCAR-4 ovarian
  TGI: > 100 µM
OVCAR-8 ovarian
  TGI: > 100 µM
SK-MEL-2 melanoma
  TGI: > 100 µM
SK-MEL-5 melanoma
  TGI: 60.1 µM

## COc1ccc(N2C(=O)CC(=O)N(NC(=O)C(C)Oc3ccccc3C)C2=S)cc1 (configuration not stated)
786-0 renal
  TGI: > 100 µM
BT-549 breast
  TGI: > 100 µM
CCRF-CEM leukemia
  TGI: > 100 µM
K-562 leukemia
  TGI: > 100 µM
MDA-N
  TGI: > 100 µM
OVCAR-4 ovarian
  TGI: > 100 µM
OVCAR-8 ovarian
  TGI: > 100 µM
SK-MEL-2 melanoma
  TGI: > 100 µM
SK-MEL-5 melanoma
  TGI: > 100 µM

## Cc1ccc(/C=N\NC2c3cc(Cl)ccc3Nc3nc(=O)[nH]c(C)c32)cc1 (configuration not stated)
786-0 renal
  TGI: > 100 µM
CCRF-CEM leukemia
  TGI: > 100 µM
DLD-1 colon
  TGI: > 100 µM
DMS 114 small cell lung
  TGI: > 100 µM
K-562 leukemia
  TGI: > 100 µM
LXFL 529 NSCLC
  TGI: > 100 µM
OVCAR-8 ovarian
  TGI: > 100 µM
SK-MEL-2 melanoma
  TGI: > 100 µM
SNB-78 CNS
  TGI: > 100 µM

## O=C(O)[C@H]1CCCN1CP(=O)(O)CN1CCC[C@@H]1C(=O)O
786-0 renal
  TGI: > 100 µM
BT-549 breast
  TGI: > 100 µM
CCRF-CEM leukemia
  TGI: > 100 µM
K-562 leukemia
  TGI: > 100 µM
MDA-N
  TGI: > 100 µM
OVCAR-4 ovarian
  TGI: > 100 µM
OVCAR-8 ovarian
  TGI: > 100 µM
SK-MEL-2 melanoma
  TGI: > 100 µM
SK-MEL-5 melanoma
  TGI: > 100 µM

## Cc1cccc(C)c1NC(=O)C(Cc1c[nH]c2ccccc12)NC(=O)OCc1ccccc1 (configuration not stated)
786-0 renal
  TGI: 53.6 µM
BT-549 breast
  TGI: 65.3 µM
CCRF-CEM leukemia
  TGI: 76.9 µM
K-562 leukemia
  TGI: > 100 µM
MDA-N
  TGI: 54.6 µM
OVCAR-4 ovarian
  TGI: 37.1 µM
OVCAR-8 ovarian
  TGI: 89.2 µM
SK-MEL-2 melanoma
  TGI: 34.4 µM
SK-MEL-5 melanoma
  TGI: 28.9 µM

## O=[N+]([O-])C(=C(Nc1ccccc1)Nc1ccccc1)C(Cl)=C(Cl)Cl
786-0 renal
  TGI: 29.4 µM
BT-549 breast
  TGI: 29.6 µM
CCRF-CEM leukemia
  TGI: 28.1 µM
K-562 leukemia
  TGI: 33.4 µM
MDA-N
  TGI: 27.2 µM
OVCAR-4 ovarian
  TGI: 24.8 µM
OVCAR-8 ovarian
  TGI: 48.5 µM
SK-MEL-2 melanoma
  TGI: 28.3 µM
SK-MEL-5 melanoma
  TGI: 29.2 µM

## C[N+](C)([O-])CCOc1cc2c(c3ccccc13)-c1ccccc1C2=O
CCRF-CEM leukemia
  TGI: > 83.7 µM
DLD-1 colon
  TGI: > 100 µM
DMS 114 small cell lung
  TGI: 24.7 µM
K-562 leukemia
  TGI: > 95.2 µM
OVCAR-4 ovarian
  TGI: 42.9 µM
OVCAR-8 ovarian
  TGI: > 93.1 µM
SK-MEL-2 melanoma
  TGI: 33.2 µM
SK-MEL-5 melanoma
  TGI: 28.7 µM
SNB-78 CNS
  TGI: > 91.1 µM
